We go through eight compounds from patent US7396943B2, “Opioid receptor antagonists” (Eli Lilly and Company, priority 2004, dated 2008).

Structures can show the parent of a compound that is named as a salt.

Assay type in all cases: biochemical
For one experiment, the target named is mu opioid receptor (MOR) (Homo sapiens, UniProt P35372). Description: GTP-γ-S binding assay (SPA), antagonist mode, mu. To be noted: antagonism of agonist DAMGO 1 micromolar; membranes; Kb by Cheng-Prusoff equation; read-out: In Vitro Antagonism GTP-γ-S Kb (nM) Mu. On the procedure:
(§1) A scintillation proximity assay (SPA)-based GTP-γ-S^35 assay format was developed based on previous opioid (Emmerson et al., J. Pharm Exp Ther 278, 1121, 1996; Horng et al., Society for Neuroscience Abstracts, 434.6, 2000) and muscarinic (DeLapp et al., JPET 289, 946, 1999) assay formats. Membranes were resuspended in 20 mM HEPES, 100 mM NaCl, 5 mM MgCl2, 1 mM DTT, and 1 mM EDTA. […] of GTP-γ-[35S], compound, membrane suspension (20 microgram/well), and wheat germ agglutinin coated SPA beads (1 mg/well) were added to clear bottom 96 well assay plates. GDP ([…]) was added to the membrane solution prior to addition to the assay plates. Plates were sealed and incubated for four hours at room temperature then placed in a refrigerator overnight to allow the beads to settle. Signal stability at 4° C. was determined to be >60 hours. Plates were warmed to room temperature and counted in a Wallac Microbeta scintillation counter. For antagonist assays, specific agonists were added at the following concentrations: (MOR) DAMGO 1 micromolar, (DOR) DPDPE 30 nM, (KOR) US69593 300 nM. Kb's were determined by Cheng-Prusoff equation (see Cheng and Prusoff, Biochem. Pharmacol. 22, 3099 1973).

For experiment [1], the target named is kappa opioid receptor (KOR) (Homo sapiens, UniProt P41145). Description: GTP-γ-S binding assay (SPA), antagonist mode, kappa. To be noted: antagonism of agonist US69593 300 nM; membranes; Kb by Cheng-Prusoff equation; read-out: In Vitro Antagonism GTP-γ-S Kb (nM) Kappa. As for the experimental part:
as §1
A general note: Binding of GTPγS marks nucleotide exchange on a G protein.

The target in experiment [2] is delta opioid receptor (DOR) (Homo sapiens, UniProt P41143). Description: GTP-γ-S binding assay (SPA), antagonist mode, delta. To be noted: antagonism of agonist DPDPE 30 nM; membranes; Kb by Cheng-Prusoff equation; read-out: In Vitro Antagonism GTP-γ-S Kb (nM) Delta. On the procedure: as §1
delta opioid receptor (DOR), sequence (P41143 whole entry): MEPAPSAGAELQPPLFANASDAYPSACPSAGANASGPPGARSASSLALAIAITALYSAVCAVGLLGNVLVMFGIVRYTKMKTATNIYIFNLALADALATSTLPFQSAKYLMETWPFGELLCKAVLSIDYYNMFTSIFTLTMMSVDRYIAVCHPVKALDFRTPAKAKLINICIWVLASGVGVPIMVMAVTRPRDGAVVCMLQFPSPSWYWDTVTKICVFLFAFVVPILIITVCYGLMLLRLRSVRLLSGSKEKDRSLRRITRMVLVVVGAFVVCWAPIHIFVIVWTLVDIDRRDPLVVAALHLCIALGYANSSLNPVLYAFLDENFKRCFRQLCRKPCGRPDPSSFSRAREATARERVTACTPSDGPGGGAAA

kappa opioid receptor (KOR), sequence (P41145 whole entry): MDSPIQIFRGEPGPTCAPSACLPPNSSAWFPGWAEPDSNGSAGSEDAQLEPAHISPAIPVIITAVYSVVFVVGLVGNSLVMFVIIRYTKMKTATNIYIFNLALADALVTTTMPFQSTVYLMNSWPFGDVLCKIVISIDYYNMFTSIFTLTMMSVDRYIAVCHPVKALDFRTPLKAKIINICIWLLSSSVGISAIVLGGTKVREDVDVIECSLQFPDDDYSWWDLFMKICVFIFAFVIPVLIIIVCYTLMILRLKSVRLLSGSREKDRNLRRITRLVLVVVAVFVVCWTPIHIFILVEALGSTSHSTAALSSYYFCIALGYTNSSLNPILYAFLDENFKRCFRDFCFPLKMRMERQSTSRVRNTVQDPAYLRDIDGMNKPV
mu opioid receptor (MOR), sequence (P35372 whole entry): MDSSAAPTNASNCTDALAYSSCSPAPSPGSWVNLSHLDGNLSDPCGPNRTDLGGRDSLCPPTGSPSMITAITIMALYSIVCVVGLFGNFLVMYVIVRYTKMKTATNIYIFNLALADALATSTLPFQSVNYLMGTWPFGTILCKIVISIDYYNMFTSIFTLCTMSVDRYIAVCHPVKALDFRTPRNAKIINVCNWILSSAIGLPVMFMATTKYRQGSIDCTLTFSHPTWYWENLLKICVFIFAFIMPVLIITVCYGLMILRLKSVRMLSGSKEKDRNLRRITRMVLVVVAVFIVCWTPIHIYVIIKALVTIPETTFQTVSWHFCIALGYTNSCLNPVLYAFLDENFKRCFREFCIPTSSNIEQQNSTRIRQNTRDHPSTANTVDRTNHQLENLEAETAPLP

As to `NC(=O)c1ccc(Oc2ccc(CNCCc3ccccc3)s2)cc1` [Example 1, 4-[5-(Phenethylamino-methyl)-thiophen-2-yloxy]-benzamide], the values for the Kb (at mu opioid receptor (MOR); in experiment [1]; in experiment [2]) were 0.6 nM, 4.6 nM and 3.3 nM, respectively.
For `CC(C)CCNCc1ccc(Oc2ccc(C(N)=O)cc2)s1` [Example 2, 4-{5-[(3-Methyl-butylamino)-methyl]-thiophen-2-yloxy}-benzamide] the same measures were 3.7 nM, 2.2 nM and 19.4 nM.
For the compound `NC(=O)c1ccc(Oc2ccc(CNCCc3cccc(F)c3)s2)cc1` [Example 3, 4-(5-{[2-(3-Fluoro-phenyl)-ethylamino]-methyl}-thiophen-2-yloxy)-benzamide], the Kb on mu opioid receptor (MOR) is 0.6 nM; in experiment [1], 3.9 nM; in experiment [2], 1.6 nM.
For `NC(=O)c1ccc(Oc2ccc(CNCCC3CCCC3)s2)cc1` [Example 4, 4-{5-[(2-Cyclopentyl-ethylamino)-methyl]-thiophen-2-yloxy}-benzamide] the same measures were 0.6 nM, 1 nM and 2.7 nM.
Regarding `NC(=O)c1ccc(Oc2ccc(CNCCc3cccs3)s2)cc1` [Example 5, 4-{5-[(2-Thiophen-2-yl-ethylamino)-methyl]-thiophen-2-yloxy}-benzamide], the Kb was 0.6 nM on mu opioid receptor (MOR), 1.4 nM in experiment [1] and 2.4 nM in experiment [2].
In the case of `CC(C)(C)CCNCc1ccc(Oc2ccc(C(N)=O)cc2)s1` [Example 6, 4-{5-[(3,3-Dimethyl-butylamino)-methyl]-thiophen-2-yloxy}-benzamide], the Kb at mu opioid receptor (MOR) stood at 5.7 nM; in experiment [2] it was 13.7 nM.
In the case of `COc1cc(C(N)=O)ccc1Oc1ccc(CNCCc2ccccc2)s1` [Example 7, 3-Methoxy-4-[5-(phenethylamino-methyl)-thiophen-2-yloxy]-benzamide hydrochloride], the Kb on mu opioid receptor (MOR) worked out at 0.3 nM; in experiment [1] it was 4 nM; in experiment [2], 1.3 nM.
For `COc1cc(C(N)=O)ccc1Oc1ccc(CNCCC(C)C)s1` [Example 8, 3-Methoxy-4-{5-[(3-methyl-butylamino)-methyl]-thiophen-2-yloxy}-benzamide hydrochloride] the same measures were 4.7 nM, 3.2 nM and 40.5 nM.
